The source of these data is patent US20100280035A1, “SOLID PHARMACEUTICAL COMPOSITION COMPRISING 1-(4-CHLOROANILINO)-4-(4-PYRIDYLMETHYL)PHTHALAZINE AND A PH MODIFIER” (priority 2005, published 2010).

This data set in a line: Permeability of the Agent in the small intestine.

On to `Clc1ccc(Nc2nnc(Cc3ccncc3)c3ccccc23)cc1.O=C(O)CCC(=O)O` [Agent, 1-(4-chloroanilino)-4-(4-pyridylmethyl)phthalazine succinate], for which the permeability entry is given as “good”.
